The results in this text go back to patent US10214546B2, “Btk inhibitors” (MERCK SHARP & DOHME CORP., priority 2014, dated 2019).

The target of assay [1] is BTK enzyme (recombinant full-length BTK, hBTK) (Homo sapiens (Human), UniProt Q06187). Put plainly: BTK enzymatic activity LANCE TR-FRET assay. It is filed as biochemical. The following applies: 50 pM hBTK, 25 μM ATP, 2 μM biotin-A5-peptide; compound range 1 μM to 0.017 nM; read-out: BTK binding IC50.
In assay [2] the test system is adenosine uptake into HeLa cells. Put plainly: [3H]Adenosine uptake assay in HeLa cells. It is filed as cell-based. The following applies: [3H]adenosine accumulation in HeLa cells, compound range 10 μM to 0.032 nM, read-out: ADU inhibition IC50. The method, boiled down: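 HeLa cells in HBSS + 5% FBS were preincubated 30 min at ambient temperature with compound (ten-point 1:3 series, 10 µM–[…] final), then given [3H]adenosine (added as a 500 nM solution) for 60 min. Cell-associated label was read by scintillating-plate proximity counting; IC50 from 4-parameter fit of cps versus log concentration.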

Read-outs that look alike come from different tables or passages of the source.

Sequence of BTK enzyme (recombinant full-length BTK, hBTK) (Q06187 whole entry): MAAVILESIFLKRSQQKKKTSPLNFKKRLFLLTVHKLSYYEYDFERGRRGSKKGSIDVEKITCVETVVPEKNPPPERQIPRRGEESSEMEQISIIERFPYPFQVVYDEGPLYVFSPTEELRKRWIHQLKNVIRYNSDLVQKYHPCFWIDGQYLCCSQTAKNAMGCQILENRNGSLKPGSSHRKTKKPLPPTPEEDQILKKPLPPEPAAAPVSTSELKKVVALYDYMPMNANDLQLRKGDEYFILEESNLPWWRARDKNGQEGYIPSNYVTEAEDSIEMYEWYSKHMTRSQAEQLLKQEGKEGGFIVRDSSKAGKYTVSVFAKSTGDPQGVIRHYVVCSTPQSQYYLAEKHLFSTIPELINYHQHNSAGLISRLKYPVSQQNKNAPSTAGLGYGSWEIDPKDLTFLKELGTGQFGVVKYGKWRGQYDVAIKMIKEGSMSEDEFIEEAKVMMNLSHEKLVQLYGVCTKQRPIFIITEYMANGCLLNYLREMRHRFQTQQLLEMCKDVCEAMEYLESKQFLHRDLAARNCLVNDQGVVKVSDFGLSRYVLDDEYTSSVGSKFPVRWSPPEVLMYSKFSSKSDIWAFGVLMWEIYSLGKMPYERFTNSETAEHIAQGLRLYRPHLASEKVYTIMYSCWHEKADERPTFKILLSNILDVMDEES

For orientation: IC50 means the concentration at which inhibition is half-maximal. With `C[C@@](O)(c1ccc(-c2nc([C@@H]3CC[C@H]4CCCN4C3)n3ccnc(N)c23)cc1)c1cccc(C(F)(F)F)c1` [Example 62, (1R)-1-(4-{8-amino-3-[(6R,8aS)-octahydroindolizin-6-yl]imidazo[1,5-a]pyrazin-1-yl}phenyl)-1-[3-(trifluoromethyl)phenyl] ethanol], the IC50 in assay [1] is 19.7 nM; in assay [2] (Homo sapiens, HeLa), 2300 nM.

`C[C@](O)(c1ccc(-c2nc([C@@H]3CC[C@H]4CCCN4C3)n3ccnc(N)c23)cc1)c1cccc(C(F)(F)F)c1` [Example 63, (1S)-1-(4-{8-amino-3-[(6R,8aS)-octahydroindolizin-6-yl]imidazo[1,5-a]pyrazin-1-yl}phenyl)-1-[3-(trifluoromethyl)phenyl] ethanol]: the half-inhibitory concentration (IC50) in assay [1] was 1000 nM; in assay [2] (Homo sapiens, HeLa) it was 1470 nM.

On to `COc1cc(-c2nc([C@@H]3CC[C@H]4CCC(=O)N4C3)n3ccnc(N)c23)ccc1C(C)(O)c1cccc(C(F)(F)F)c1` (stereo partly drawn) [Example 64, (6R,8aS)-6-[8-amino-1-(4-{1-hydroxy-1-[3-(trifluoromethyl)phenyl]ethyl}-3-methoxyphenyl)imidao [1,5-a]pyrazin-3-yl]hexahydroindolizin-3(2H)-one], for which the IC50 came to 59.1 nM in assay [1] and 936 nM in assay [2].

Regarding `COc1cc(-c2nc([C@@H]3CC[C@H]4CCC(=O)N4C3)n3ccnc(N)c23)ccc1C(C)(O)c1cccc(C(F)(F)F)c1` (stereo partly drawn) [Example 65, (6R,8aS)-6-[8-amino-1-(4-{1-hydroxy-1-[3-(trifluoromethyl)phenyl]ethyl}-3-methoxyphenyl)imidazo [1,5-a]pyrazin-3-yl]hexahydroindolizin-3(2H)-one], the IC50 amounted to 7 nM in assay [1] and 10000 nM in assay [2].

Turning to `C[C@@](O)(c1ccc(-c2nc([C@@H]3CC[C@H]4CCC(=O)N4C3)n3ccnc(N)c23)cc1)c1cccc(N2CCOCC2)c1` [Example 66, (6R,8aS)-6-(8-amino-1-{4-[(1R)-1-hydroxy-1-(3-morpholin-4-ylphenyl)ethyl]phenyl}imidazo[1,5-a]pyrazin-3-yl)hexahydroindolizin-3(2H)-one], the IC50 in assay [1] was found to be 796 nM; in assay [2] (Homo sapiens, HeLa), 4190 nM.

For the compound `C[C@](O)(c1ccc(-c2nc([C@@H]3CC[C@H]4CCC(=O)N4C3)n3ccnc(N)c23)cc1)c1cccc(N2CCOCC2)c1` [Example 67, (6R,8aS)-6-(8-amino-1-{4-[(1S)-1-hydroxy-1-(3-morpholin-4-ylphenyl)ethyl]phenyl}imidazo[1,5-a]pyrazin-3-yl)hexahydroindolizin-3(2H)-one], the IC50 in assay [1] amounted to 15.4 nM; in assay [2] (Homo sapiens, HeLa), 8500 nM.

Turning to `C[C@](O)(c1ccc(-c2nc([C@@H]3CC[C@H]4CCC(=O)N4C3)n3ccnc(N)c23)cc1)c1ccccc1F` [Example 68, (6R,8aS)-6-(8-amino-1-{4-[(1S)-1-(2-fluorophenyl)-1-hydroxyethyl]phenyl}imidazo[1,5-a]pyrazin-3-yl)hexahydroindolizin-3(2H)-one], the IC50 in assay [1] worked out at 460 nM; in assay [2] (Homo sapiens, HeLa), 5550 nM.

For the compound `C[C@@](O)(c1ccc(-c2nc([C@@H]3CC[C@H]4CCC(=O)N4C3)n3ccnc(N)c23)cc1)c1ccccc1F` [Example 69, (6R,8aS)-6-(8-amino-1-{4-[(1R)-1-(2-fluorophenyl)-1-hydroxyethyl]phenyl}imidazo[1,5-a]pyrazin-3-yl)hexahydroindolizin-3(2H)-one], the IC50 in assay [1] was determined as 4.9 nM; in assay [2] (Homo sapiens, HeLa), 6470 nM.

Take `C[C@](O)(c1ccc(-c2nc([C@@H]3CC[C@H]4CCC(=O)N4C3)n3ccnc(N)c23)cc1)c1cccc(C(F)F)c1` [Example 70, (6R,8aS)-6-[8-amino-1-(4-{(1S)-1-[3-(difluoromethyl)phenyl]-1-hydroxyethyl}phenyl)imidazo[1,5-a]pyrazin-3-yl]hexahydroindolizin-3(2H)-one]: the IC50 was 30.4 nM in assay [1] and 1010 nM in assay [2] (Homo sapiens, HeLa).

Consider `C[C@@](O)(c1ccc(-c2nc([C@@H]3CC[C@H]4CCC(=O)N4C3)n3ccnc(N)c23)cc1)c1cccc(C(F)F)c1` [Example 71, (6R,8aS)-6-[8-amino-1-(4-{(1R)-1-[3-(difluoromethyl)phenyl]-1-hydroxyethyl}phenyl)imidazo[1,5-a]pyrazin-3-yl]hexahydroindolizin-3(2H)-one], for which the IC50 in assay [1] amounted to 0.19 nM; in assay [2] (Homo sapiens, HeLa), 5120 nM.

Consider `Nc1nccn2c([C@@H]3CC[C@H]4CCC(=O)N4C3)nc(-c3ccc(C(O)c4cccc(C(F)(F)F)c4)cc3)c12` (stereo partly drawn) [Example 72, (6R,8aS)-6-[8-amino-1-(4-{hydroxy[3-(trifluoromethyl)phenyl]methyl}phenyl)imidazo [1,5-a]pyrazin-3-yl]hexahydroindolizin-3(2H)-one], for which the values for the IC50 in assay [1] and in assay [2] were 20.4 nM and 469 nM, respectively.

For `Nc1nccn2c([C@@H]3CC[C@H]4CCC(=O)N4C3)nc(-c3ccc(C(O)c4cccc(C(F)(F)F)c4)cc3)c12` (stereo partly drawn) [Example 73, (6R,8aS)-6-[8-amino-1-(4-{hydroxy[3-(trifluoromethyl)phenyl]methyl}phenyl)imidazo [1,5-a]pyrazin-3-yl]hexahydroindolizin-3(2H)-one], the figures for the IC50 in assay [1] and in assay [2] were 0.41 nM and 1350 nM, respectively.

As to `CC(C)c1cccc([C@@](C)(O)c2ccc(-c3nc([C@@H]4CC[C@H]5CCC(=O)N5C4)n4ccnc(N)c34)cc2)c1` [Example 74, (6R,8aS)-6-[8-amino-1-(4-{(1S)-1-hydroxy-1-[3(1-methylethyl)phenyl]ethyl}phenyl)imidazo[1,5-a]pyrazin-3-yl]hexahydroindolizin-3(2H)-one], the IC50 in assay [1] amounted to 15 nM; in assay [2] (Homo sapiens, HeLa), 463 nM.

Regarding `CC(C)c1cccc([C@](C)(O)c2ccc(-c3nc([C@@H]4CC[C@H]5CCC(=O)N5C4)n4ccnc(N)c34)cc2)c1` [Example 75, (6R,8aS)-6-[8-amino-1-(4-{(1R)-1-hydroxy-1-[3(1-methylethyl)phenyl]ethyl}phenyl)imidazo[1,5-a]pyrazin-3-yl]hexahydroindolizin-3(2H)-one], the half-maximal inhibitory concentration (IC50) in assay [1] turned out to be 0.21 nM; in assay [2] (Homo sapiens, HeLa) it was 2010 nM.

As to `CC(C)C(O)(c1ccc(-c2nc([C@@H]3CC[C@H]4CCC(=O)N4C3)n3ccnc(N)c23)cc1)c1cccc(C(F)(F)F)c1` (stereo partly drawn) [Example 76, (6R,8aS)-6-[8-amino-1-(4-{1-hydroxy-2-methyl-1-[3-(trifluoromethyl)phenyl]propyl}phenyl)imidazo [1,5-a]pyrazin-3-yl]hexahydroindolizin-3(2H)-one], the IC50 in assay [1] was 1000 nM; in assay [2] (Homo sapiens, HeLa) it was 2100 nM.

As for `C[C@](O)(c1ccc(-c2nc([C@@H]3CC[C@H]4CCC(=O)N4C3)n3ccnc(N)c23)cc1)c1cccc(CC(F)(F)F)c1` [Example 77, (6R,8aS)-6-[8-amino-1-(4-{(1S)-1-hydroxy-1-[3-(2,2,2-trifluoroethyl)phenyl]ethyl}phenyl)imidazo[1,5-a]pyrazin-3-yl]hexahydroindolizin-3(2H)-one], the IC50 came out at 24.2 nM in assay [1] and 1040 nM in assay [2] (Homo sapiens, HeLa).

For `C[C@@](O)(c1ccc(-c2nc([C@@H]3CC[C@H]4CCC(=O)N4C3)n3ccnc(N)c23)cc1)c1cccc(CC(F)(F)F)c1` [Example 78, (6R,8aS)-6-[8-amino-1-(4-{(1R)-1-hydroxy-1-[3-(2,2,2-trifluoroethyl)phenyl]ethyl}phenyl)imidazo[1,5-a]pyrazin-3-yl]hexahydroindolizin-3(2H)-one], the IC50 in assay [1] turned out to be 0.17 nM; in assay [2] (Homo sapiens, HeLa) it was 2850 nM.

In the case of `CC(C)C(O)(c1ccc(-c2nc([C@@H]3CC[C@H]4CCC(=O)N4C3)n3ccnc(N)c23)cc1)c1cccc(C(F)(F)F)c1` (stereo partly drawn) [Example 79, (6R,8aS)-6-[8-amino-1-(4-{1-hydroxy-2-methyl-1-[3-(trifluoromethyl)phenyl]propyl}phenyl)imidazo [1,5-a]pyrazin-3-yl]hexahydroindolizin-3(2H)-one], the values for the IC50 in assay [1] and in assay [2] were 204 nM and 1470 nM, respectively.

Turning to `C[C@@](O)(c1cccc(C(F)(F)F)c1)c1ccc(-c2nc([C@@H]3CC[C@H]4CCC(=O)N4C3)n3ccnc(N)c23)c(C(F)F)c1` [Example 80, (6R,8aS)-6-{8-amino-1-[2-(difluoromethyl)-4-{(1S)-1-hydroxy-1-[3-(trifluoromethyl)phenyl]ethyl}phenyl]imidazo [1,5-a]pyrazin-3-yl}-hexahydroindolizin-3(2H)-one], the IC50 in assay [1] stood at 808 nM; in assay [2] (Homo sapiens, HeLa) it was 1730 nM.

As for `C[C@](O)(c1cccc(C(F)(F)F)c1)c1ccc(-c2nc([C@@H]3CC[C@H]4CCC(=O)N4C3)n3ccnc(N)c23)c(C(F)F)c1` [Example 81, (6R,8aS)-6-{8-amino-1-[2-(difluoromethyl)-4-{(1R)-1-hydroxy-1-[3-(trifluoromethyl)phenyl]ethyl}phenyl]imidazo [1,5-a]pyrazin-3-yl}hexahydroindolizin-3(2H)-one], the IC50 stood at 1000 nM in assay [1] and 684 nM in assay [2] (Homo sapiens, HeLa).

Regarding `C[C@](O)(c1ccc(-c2nc([C@@H]3CC[C@H]4CCC(=O)N4C3)n3ccnc(N)c23)cc1)c1cccc(C2CCC2)c1` [Example 82, (6R,8aS)-6-(8-amino-1-{4-[(1S)-1-(3-cyclobutylphenyl)-1-hydroxyethyl]phenyl]imidazo[1,5-a]pyrazin-3-yl)hexahydroindolizin-3(2H)-one], the IC50 in assay [1] turned out to be 4.7 nM; in assay [2] (Homo sapiens, HeLa) it was 746 nM.

Take `C[C@@](O)(c1ccc(-c2nc([C@@H]3CC[C@H]4CCC(=O)N4C3)n3ccnc(N)c23)cc1)c1cccc(C2CCC2)c1` [Example 83, (6R,8aS)-6-(8-amino-1-{4-[(1R)-1-(3-cyclobutylphenyl)-1-hydroxyethyl]phenyl}imidazo[1,5-a]pyrazin-3-yl)hexahydroindolizin-3(2H)-one]: the half-maximal inhibitory concentration (IC50) is 0.12 nM in assay [1] and 1330 nM in assay [2] (Homo sapiens, HeLa).
